According to paper PMC11232109, “Synthesis, anticancer evaluation of novel hybrid pyrazole-based chalcones, molecular docking, DNA fragmentation, and gene expression: in vitro studies” (RSC Advances, 2024):

System: BJ1 (normal skin fibroblasts)
Experiment: MTT assay, normal cell line BJ1
Format: cell-based
Settings: Skin fibroblast, 48 hours
Procedure: The percentage of the cell viability treated with the newly synthesized compounds was evaluated using MTT assay (3-(4,5-dimethylthiazol-2-yl)-2,5-diphenyl tetrazolium bromide). All the subsequent steps were done in a sterile Laminar flow class II biosafety cabinet (Baker, SG406INT, Sanford, ME, USA). DMEM was used as a suspension medium for breast cancer (MCF7), prostate cancer (PC3), and pancreatic cancer (PACA2), while normal cell line (BJ1) was suspended in DMEM-F12 medium, a 1% antibiotic-antimycotic mixture (10 000 U ml^−1 potassium penicillin, 10 000 μg ml^−1 streptomycin sulfate, and 25 μg ml^−1 amphotericin B), and 1% L-glutamine at 37 °C under 5% CO2.
Cells were cultured for 10 days and then seeded at a concentration of 10 × 10^4 cells per well in fresh complete growth medium in 96-well microtiter plastic plates at 37 °C for 24 hours under 5% CO2 using a water-jacketed carbon dioxide incubator (Sheldon, TC2323). Media were aspirated, serum-free fresh medium was added, and cells were incubated either alone (negative control) or with different concentrations of the synthesized chalcone derivatives to a final concentration of (100–50–25–12.5–6.25–3.125–0.78 and 1.56 μg ml^−1). After incubation for 48 hours, the medium was aspirated and 40 μl of MTT salt ([…]) was added to each well and incubated for another four hours at 37 °C under 5% CO2. To stop the reaction and dissolve the formed crystals, 200 μl of 10% sodium dodecyl sulfate (SDS) in deionized water was added to each well and incubated overnight at 37 °C.
The absorbance was then measured at 595 nm and a reference wavelength of 620 nm using a microplate multi-well reader (Bio-Rad Laboratories Inc., model 3350). Statistical significance was tested between the samples and the negative control (cells with vehicle) using an independent t-test using the SPSS 11 program. DMSO was the vehicle used for the dissolution of the synthesized chalcones, and its final concentration on the cells was less than 0.2%. The percentage of change in viability was calculated according to the formula: ((reading of extract/reading of negative control) − 1) × 100. A Probit analysis was carried out for the determination of IC50 using the SPSS 11 program.

COc1cccc2c1C(=O)c1c(O)c3c(c(O)c1C2=O)C[C@@](O)(C(=O)CO)C[C@@H]3O[C@H]1C[C@H](N)[C@H](O)[C@H](C)O1 [Doxorubicin, reference compound]
IC50: 13.6 ± 0.28 µM
